Experiments:
Test in all cases: RBC kinase panel
Type in all cases: biochemical
Details in all cases: ATP 10 μM, Data1, Data2
MAPKAPK2 = biological target: T1, MAPKAPK2 (Homo sapiens, UniProt P49137)
T1 construct: purchased Reaction Biology Corporation
Experimental: (§1) PK68 was tested at 1 μM in duplicate against a panel of 369 human kinases at Reaction Biology Corporation. Results are viewed in the human kinome phylogenetic tree.
(§2) ^a Compound PK68 was tested at 1 μM in duplicate against 369 kinases using the RBC kinase panel service of Reaction Biology Corporation. All the ATP concentrations used were 10 μM. […] Full protocol details are available at http://www.reactionbiology.com.

EPHA8 = biological target: T2, EPHA8 (Homo sapiens, UniProt P29322)
T2 construct: purchased Reaction Biology Corporation
Experimental: as §1, §2

PKCtheta = biological target: T3, PKCtheta (Homo sapiens, UniProt Q04759)
T3 construct: purchased Reaction Biology Corporation
Experimental: as §1, §2

MEKK1 = biological target: T4, MEKK1 (Homo sapiens, UniProt Q13233)
T4 construct: purchased Reaction Biology Corporation
T4 sequence (Q13233 whole entry): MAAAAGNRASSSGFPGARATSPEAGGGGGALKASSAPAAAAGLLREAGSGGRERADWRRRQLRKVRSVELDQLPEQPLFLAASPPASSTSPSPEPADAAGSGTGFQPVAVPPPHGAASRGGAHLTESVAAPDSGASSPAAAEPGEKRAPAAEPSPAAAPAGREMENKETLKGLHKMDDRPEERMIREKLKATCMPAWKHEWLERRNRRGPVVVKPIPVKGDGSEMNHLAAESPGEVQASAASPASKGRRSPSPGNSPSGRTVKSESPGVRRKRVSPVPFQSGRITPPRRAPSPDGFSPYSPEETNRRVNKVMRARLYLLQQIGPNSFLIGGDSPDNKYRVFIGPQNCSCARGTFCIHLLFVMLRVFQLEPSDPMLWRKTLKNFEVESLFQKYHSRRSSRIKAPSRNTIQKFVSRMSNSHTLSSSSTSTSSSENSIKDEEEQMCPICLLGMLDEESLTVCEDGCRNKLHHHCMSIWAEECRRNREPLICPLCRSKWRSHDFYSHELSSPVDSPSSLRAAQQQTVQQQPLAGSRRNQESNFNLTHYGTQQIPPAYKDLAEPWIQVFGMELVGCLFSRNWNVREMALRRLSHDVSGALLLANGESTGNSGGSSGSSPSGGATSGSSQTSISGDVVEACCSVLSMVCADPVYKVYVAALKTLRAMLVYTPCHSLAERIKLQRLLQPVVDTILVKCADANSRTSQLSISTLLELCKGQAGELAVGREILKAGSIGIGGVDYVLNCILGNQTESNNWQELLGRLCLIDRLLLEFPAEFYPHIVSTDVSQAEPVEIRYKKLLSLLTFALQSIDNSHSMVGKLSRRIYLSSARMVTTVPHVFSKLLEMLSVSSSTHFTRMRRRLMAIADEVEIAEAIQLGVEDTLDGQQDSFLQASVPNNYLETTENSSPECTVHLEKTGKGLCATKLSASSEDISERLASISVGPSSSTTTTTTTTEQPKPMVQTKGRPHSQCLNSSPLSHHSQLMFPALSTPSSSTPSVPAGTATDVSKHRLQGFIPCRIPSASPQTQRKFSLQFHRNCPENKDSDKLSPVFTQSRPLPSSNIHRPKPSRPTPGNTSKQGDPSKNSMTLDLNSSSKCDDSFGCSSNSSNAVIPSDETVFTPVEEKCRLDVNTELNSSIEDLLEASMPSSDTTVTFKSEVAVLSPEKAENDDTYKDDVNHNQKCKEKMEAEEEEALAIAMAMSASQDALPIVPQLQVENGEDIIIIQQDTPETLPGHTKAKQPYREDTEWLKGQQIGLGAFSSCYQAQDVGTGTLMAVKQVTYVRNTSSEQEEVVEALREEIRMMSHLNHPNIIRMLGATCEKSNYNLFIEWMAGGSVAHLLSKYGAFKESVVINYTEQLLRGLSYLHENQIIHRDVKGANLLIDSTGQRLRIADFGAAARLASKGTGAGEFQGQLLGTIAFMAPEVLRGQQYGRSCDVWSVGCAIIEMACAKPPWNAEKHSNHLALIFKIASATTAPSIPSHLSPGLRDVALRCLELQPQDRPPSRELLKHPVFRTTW
Experimental: as §1, §2

TSSK2 = biological target: T5, TSSK2 (Homo sapiens, UniProt Q96PF2)
T5 construct: purchased Reaction Biology Corporation
Experimental: as §1, §2

NEK6 = biological target: T6, NEK6 (Homo sapiens, UniProt Q9HC98)
T6 construct: purchased Reaction Biology Corporation
Experimental: as §1, §2

c-MER = biological target: T7, c-MER (Homo sapiens, UniProt Q12866)
T7 construct: purchased Reaction Biology Corporation
Experimental: as §1, §2

PKG1b = biological target: T8, PKG1b (Homo sapiens, UniProt Q13976)
T8 construct: purchased Reaction Biology Corporation
Experimental: as §1, §2

BMPR2 = biological target: T9, BMPR2 (Homo sapiens, UniProt Q13873)
T9 construct: purchased Reaction Biology Corporation
Experimental: as §1, §2

AKT1 = biological target: T10, AKT1 (Homo sapiens, UniProt P31749)
T10 construct: purchased Reaction Biology Corporation
T10 sequence (P31749 whole entry): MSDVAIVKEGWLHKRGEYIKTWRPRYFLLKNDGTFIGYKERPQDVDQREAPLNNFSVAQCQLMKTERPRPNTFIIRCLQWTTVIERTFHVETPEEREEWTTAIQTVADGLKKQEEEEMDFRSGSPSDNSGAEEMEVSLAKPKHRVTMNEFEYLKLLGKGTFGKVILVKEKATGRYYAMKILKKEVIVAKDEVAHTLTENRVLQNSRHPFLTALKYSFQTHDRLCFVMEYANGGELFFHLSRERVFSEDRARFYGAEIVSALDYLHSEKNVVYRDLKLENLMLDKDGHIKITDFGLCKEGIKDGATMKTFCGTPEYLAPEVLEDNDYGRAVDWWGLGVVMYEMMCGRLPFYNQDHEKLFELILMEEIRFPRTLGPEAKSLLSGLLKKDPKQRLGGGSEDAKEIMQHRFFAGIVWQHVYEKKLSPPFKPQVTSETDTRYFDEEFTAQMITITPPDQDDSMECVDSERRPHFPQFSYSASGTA
Experimental: as §1, §2

STK38L/NDR2 = biological target: T11, STK38L/NDR2 (Homo sapiens, UniProt Q9Y2H1)
T11 construct: purchased Reaction Biology Corporation
Experimental: as §1, §2

CDK5/p35 = biological target: T12, CDK5/p35 (Homo sapiens, UniProt Q00535)
T12 construct: purchased Reaction Biology Corporation
Experimental: as §1, §2

IGF1R = biological target: T13, IGF1R (Homo sapiens, UniProt P08069)
T13 construct: purchased Reaction Biology Corporation
Experimental: as §1, §2

MAK = biological target: T14, MAK (Homo sapiens, UniProt P20794)
T14 construct: purchased Reaction Biology Corporation
Experimental: as §1, §2

MEKK2 = biological target: T15, MEKK2 (Homo sapiens, UniProt Q9Y2U5)
T15 construct: purchased Reaction Biology Corporation
Experimental: as §1, §2

c-Kit = biological target: T16, c-Kit (Homo sapiens, UniProt P10721)
T16 construct: purchased Reaction Biology Corporation
Experimental: as §1, §2

YES/YES1 = biological target: T17, YES/YES1 (Homo sapiens, UniProt P07947)
T17 construct: purchased Reaction Biology Corporation
Experimental: as §1, §2

PAK4 = biological target: T18, PAK4 (Homo sapiens, UniProt O96013)
T18 construct: purchased Reaction Biology Corporation
Experimental: as §1, §2

PKCeta = biological target: T19, PKCeta (Homo sapiens, UniProt P24723)
T19 construct: purchased Reaction Biology Corporation
Experimental: as §1, §2

ROCK2 = biological target: T20, ROCK2 (Homo sapiens, UniProt O75116)
T20 construct: purchased Reaction Biology Corporation
Experimental: as §1, §2

TEC = biological target: T21, TEC (Homo sapiens, UniProt P42680)
T21 construct: purchased Reaction Biology Corporation
T21 sequence (P42680 whole entry): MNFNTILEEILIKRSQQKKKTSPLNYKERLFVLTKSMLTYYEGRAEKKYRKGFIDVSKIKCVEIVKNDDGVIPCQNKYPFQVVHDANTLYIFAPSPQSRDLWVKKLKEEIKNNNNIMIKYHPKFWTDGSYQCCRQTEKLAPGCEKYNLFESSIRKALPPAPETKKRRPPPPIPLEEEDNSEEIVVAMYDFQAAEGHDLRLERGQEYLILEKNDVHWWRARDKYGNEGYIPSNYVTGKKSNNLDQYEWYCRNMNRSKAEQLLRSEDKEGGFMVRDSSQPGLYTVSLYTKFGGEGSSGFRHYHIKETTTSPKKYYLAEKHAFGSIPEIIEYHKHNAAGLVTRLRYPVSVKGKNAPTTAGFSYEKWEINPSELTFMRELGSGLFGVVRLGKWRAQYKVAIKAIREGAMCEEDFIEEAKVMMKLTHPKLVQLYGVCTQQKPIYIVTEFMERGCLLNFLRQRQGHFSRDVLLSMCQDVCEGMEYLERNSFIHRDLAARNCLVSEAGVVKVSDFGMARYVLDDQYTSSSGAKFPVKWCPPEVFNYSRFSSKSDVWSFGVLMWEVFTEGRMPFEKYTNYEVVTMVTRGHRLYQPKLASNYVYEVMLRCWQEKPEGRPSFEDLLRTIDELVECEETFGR
Experimental: as §1, §2

STK39/STLK3 = biological target: T22, STK39/STLK3 (Homo sapiens, UniProt Q9UEW8)
T22 construct: purchased Reaction Biology Corporation
Experimental: as §1, §2

STK25/YSK1 = biological target: T23, STK25/YSK1 (Homo sapiens, UniProt O00506)
T23 construct: purchased Reaction Biology Corporation
T23 sequence (O00506 whole entry): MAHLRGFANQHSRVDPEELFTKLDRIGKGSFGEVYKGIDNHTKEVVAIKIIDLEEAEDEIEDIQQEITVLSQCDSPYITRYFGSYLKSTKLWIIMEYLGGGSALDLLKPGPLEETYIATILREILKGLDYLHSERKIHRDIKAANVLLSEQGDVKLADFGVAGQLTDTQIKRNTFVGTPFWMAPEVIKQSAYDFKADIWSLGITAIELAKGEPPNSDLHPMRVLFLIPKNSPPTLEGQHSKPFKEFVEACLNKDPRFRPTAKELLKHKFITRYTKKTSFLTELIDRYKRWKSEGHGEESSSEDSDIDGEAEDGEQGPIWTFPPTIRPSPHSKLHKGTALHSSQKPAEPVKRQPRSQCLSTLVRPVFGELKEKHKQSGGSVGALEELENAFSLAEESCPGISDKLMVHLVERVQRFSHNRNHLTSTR
Experimental: as §1, §2

CK1g2 = biological target: T24, CK1g2 (Homo sapiens, UniProt P78368)
T24 construct: purchased Reaction Biology Corporation
T24 sequence (P78368 whole entry): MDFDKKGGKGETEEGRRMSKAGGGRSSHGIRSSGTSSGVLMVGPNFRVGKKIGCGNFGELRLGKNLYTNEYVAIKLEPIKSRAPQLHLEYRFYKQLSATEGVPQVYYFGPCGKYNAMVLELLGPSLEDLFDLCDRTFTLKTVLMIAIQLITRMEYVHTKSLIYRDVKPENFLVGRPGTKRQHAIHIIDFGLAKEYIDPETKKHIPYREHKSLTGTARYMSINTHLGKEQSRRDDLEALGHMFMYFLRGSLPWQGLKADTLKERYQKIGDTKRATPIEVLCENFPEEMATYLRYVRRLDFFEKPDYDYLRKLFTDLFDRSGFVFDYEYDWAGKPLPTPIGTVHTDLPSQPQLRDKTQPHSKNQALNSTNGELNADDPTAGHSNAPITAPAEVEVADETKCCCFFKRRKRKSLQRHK
Experimental: as §1, §2

DRAK1/STK17A = biological target: T25, DRAK1/STK17A (Homo sapiens, UniProt Q9UEE5)
T25 construct: purchased Reaction Biology Corporation
Experimental: as §1, §2

GRK1 = biological target: T26, GRK1 (Homo sapiens, UniProt Q15835)
T26 construct: purchased Reaction Biology Corporation
Experimental: as §1, §2

MINK/MINK1 = biological target: T27, MINK/MINK1 (Homo sapiens, UniProt Q8N4C8)
T27 construct: purchased Reaction Biology Corporation
Experimental: as §1, §2

FYN = biological target: T28, FYN (Homo sapiens, UniProt P06241)
T28 construct: purchased Reaction Biology Corporation
Experimental: as §1, §2

TTBK1 = biological target: T29, TTBK1 (Homo sapiens, UniProt Q5TCY1)
T29 construct: purchased Reaction Biology Corporation
Experimental: as §1, §2

CK1g1 = biological target: T30, CK1g1 (Homo sapiens, UniProt Q9HCP0)
T30 construct: purchased Reaction Biology Corporation
T30 sequence (Q9HCP0 whole entry): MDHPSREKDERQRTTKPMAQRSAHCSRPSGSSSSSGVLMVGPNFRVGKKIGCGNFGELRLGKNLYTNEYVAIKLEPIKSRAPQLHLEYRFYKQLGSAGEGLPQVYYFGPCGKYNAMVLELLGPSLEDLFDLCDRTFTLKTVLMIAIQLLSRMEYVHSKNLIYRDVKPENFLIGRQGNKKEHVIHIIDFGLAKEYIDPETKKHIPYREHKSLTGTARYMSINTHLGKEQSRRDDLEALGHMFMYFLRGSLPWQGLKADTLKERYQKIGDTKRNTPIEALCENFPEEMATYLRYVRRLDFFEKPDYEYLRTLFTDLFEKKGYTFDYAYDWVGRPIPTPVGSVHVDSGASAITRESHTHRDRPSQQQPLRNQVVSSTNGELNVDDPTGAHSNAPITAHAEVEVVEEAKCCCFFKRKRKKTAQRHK
Experimental: as §1, §2

PLK1 = biological target: T31, PLK1 (Homo sapiens, UniProt P53350)
T31 construct: purchased Reaction Biology Corporation
T31 sequence (P53350 whole entry): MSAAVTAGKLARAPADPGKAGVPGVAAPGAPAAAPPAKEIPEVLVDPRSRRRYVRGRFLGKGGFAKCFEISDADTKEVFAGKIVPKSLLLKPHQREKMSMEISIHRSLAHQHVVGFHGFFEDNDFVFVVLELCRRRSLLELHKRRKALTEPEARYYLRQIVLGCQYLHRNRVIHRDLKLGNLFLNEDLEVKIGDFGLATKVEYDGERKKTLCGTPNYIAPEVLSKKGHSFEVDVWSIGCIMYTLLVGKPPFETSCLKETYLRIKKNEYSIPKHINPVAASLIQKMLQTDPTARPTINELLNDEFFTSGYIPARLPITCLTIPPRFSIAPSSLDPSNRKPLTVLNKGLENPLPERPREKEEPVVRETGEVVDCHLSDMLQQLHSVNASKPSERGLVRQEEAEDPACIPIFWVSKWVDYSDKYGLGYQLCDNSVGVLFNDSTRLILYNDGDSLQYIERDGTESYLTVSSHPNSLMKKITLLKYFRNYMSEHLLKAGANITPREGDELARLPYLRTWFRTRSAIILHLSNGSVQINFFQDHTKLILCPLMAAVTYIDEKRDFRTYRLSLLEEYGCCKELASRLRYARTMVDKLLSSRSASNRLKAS
Experimental: as §1, §2

CDK2/cyclin A = biological target: T32, CDK2/cyclin A (Homo sapiens, UniProt P24941)
T32 construct: purchased Reaction Biology Corporation
Experimental: as §1, §2

RIPK3 = biological target: T33, RIPK3 (Homo sapiens, UniProt Q9Y572)
T33 construct: purchased Reaction Biology Corporation
Experimental: as §1, §2

T1 sequence (P49137 whole entry): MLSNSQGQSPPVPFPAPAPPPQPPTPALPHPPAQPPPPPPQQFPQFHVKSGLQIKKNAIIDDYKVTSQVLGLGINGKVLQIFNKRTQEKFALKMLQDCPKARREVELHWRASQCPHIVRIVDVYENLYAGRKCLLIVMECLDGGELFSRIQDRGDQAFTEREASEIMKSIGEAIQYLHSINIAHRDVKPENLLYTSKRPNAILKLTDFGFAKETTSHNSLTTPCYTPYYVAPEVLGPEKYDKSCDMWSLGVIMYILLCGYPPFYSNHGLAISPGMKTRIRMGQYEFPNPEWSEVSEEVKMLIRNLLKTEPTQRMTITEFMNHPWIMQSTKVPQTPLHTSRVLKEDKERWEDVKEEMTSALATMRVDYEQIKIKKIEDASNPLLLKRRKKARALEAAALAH

CC(=O)Nc1nc2ccc(-c3cnc(C)c(NC(=O)OC4CCCCC4)c3)cc2s1 [PK68, cyclohexyl (5-(2-acetamidobenzo[d]thiazol-6-yl)-2-methylpyridin-3-yl)carbamate]
Activity% (MAPKAPK2; 1 μM): 100.37%
activity at 1 µM (MAPKAPK2): 101%
Activity% (EPHA8; 1 μM): 99.05%
activity at 1 µM (EPHA8): 100%
Activity% (PKCtheta; 1 μM): 97.50%
activity at 1 µM (PKCtheta): 101%
Activity% (MEKK1; 1 μM): 92.88%
activity at 1 µM (MEKK1): 95.3%
Activity% (TSSK2; 1 μM): 97.17%
activity at 1 µM (TSSK2): 98.1%
Activity% (NEK6; 1 μM): 93.63%
activity at 1 µM (NEK6): 98.4%
Activity% (c-MER; 1 μM): 84.20%
activity at 1 µM (c-MER): 86%
Activity% (PKG1b; 1 μM): 84.59%
activity at 1 µM (PKG1b): 85%
Activity% (BMPR2; 1 μM): 95.12%
activity at 1 µM (BMPR2): 95.5%
Activity% (AKT1; 1 μM): 99.12%
activity at 1 µM (AKT1): 99.2%
Activity% (STK38L/NDR2; 1 μM): 100.42%
activity at 1 µM (STK38L/NDR2): 101%
Activity% (CDK5/p35; 1 μM): 100.63%
activity at 1 µM (CDK5/p35): 102%
Activity% (IGF1R; 1 μM): 103.88%
activity at 1 µM (IGF1R): 104%
Activity% (MAK; 1 μM): 96.81%
activity at 1 µM (MAK): 97%
Activity% (MEKK2; 1 μM): 85.76%
activity at 1 µM (MEKK2): 89.8%
Activity% (c-Kit; 1 μM): 75.47%
activity at 1 µM (c-Kit): 77.5%
Activity% (YES/YES1; 1 μM): 87.91%
activity at 1 µM (YES/YES1): 89.2%
Activity% (PAK4; 1 μM): 101.97%
activity at 1 µM (PAK4): 104%
Activity% (PKCeta; 1 μM): 90.40%
activity at 1 µM (PKCeta): 92.8%
Activity% (ROCK2; 1 μM): 95.49%
activity at 1 µM (ROCK2): 95.5%
Activity% (TEC; 1 μM): 97.93%
activity at 1 µM (TEC): 99%
Activity% (STK39/STLK3; 1 μM): 92.54%
activity at 1 µM (STK39/STLK3): 95.8%
Activity% (STK25/YSK1; 1 μM): 104.63%
activity at 1 µM (STK25/YSK1): 110%
Activity% (CK1g2; 1 μM): 96.19%
activity at 1 µM (CK1g2): 97.8%
Activity% (DRAK1/STK17A; 1 μM): 90.72%
activity at 1 µM (DRAK1/STK17A): 91.3%
Activity% (GRK1; 1 μM): 99.42%
activity at 1 µM (GRK1): 100%
Activity% (MINK/MINK1; 1 μM): 88.92%
activity at 1 µM (MINK/MINK1): 90.2%
Activity% (FYN; 1 μM): 102.88%
activity at 1 µM (FYN): 104%
Activity% (TTBK1; 1 μM): 107.17%
activity at 1 µM (TTBK1): 110%
Activity% (CK1g1; 1 μM): 89.50%
activity at 1 µM (CK1g1): 90.7%
Activity% (PLK1; 1 μM): 93.68%
activity at 1 µM (PLK1): 94.6%
Activity% (CDK2/cyclin A; 1 μM): 97.94%
activity at 1 µM (CDK2/cyclin A): 98.5%
Activity% (RIPK3; 1 μM): 104.99%
activity at 1 µM (RIPK3): 106%
